{"source": "patent US20160376659A1", "about": "“Breast Cancer Biomarker” (The University of Manchester, priority 2015, published 2016)", "key": {"[1]": {"system": "Early (HBC×34) and metastatic (BB3RC31) PDX tumors", "test": "BCSC activity (MFE, ALDEFLUOR) of ER+ PDX tumors treated in vivo", "parameters": "species or system mice", "conditions": "14 days; for BCSC activity measured by MFE and ALDH enzymatic activity: tamoxifen 10 mg/kg/day oral, fulvestrant 200 mg/kg/week s.c.", "procedure": "Early (HBC×34) and metastatic (BB3RC31) BC estrogen-dependent PDXs were administered with 8 ug/ml of 17-beta estradiol in drinking water at all times and were treated with drugs when tumors reached 200-300 mm^3. Experiments were performed using PDX tumors between passages 5 and 8. Animal weight and tumor size was measured bi-dimensionally using callipers twice a week. The HBC×34 model was kindly provided by Dr Elisabetta Marangoni from Institute Curie, Paris (Cottu et al., 2012).\nTamoxifen citrate (Sigma, T9262, 10 mg/kg/day) and RO4929097 (Cellagen Technology, 3 mg/kg/day) were administered by oral gavage (0.1 ml/dose) on a five day from seven basis (weekends excluded) for fourteen days. Tamoxifen citrate and RO4929097 were prepared in 1% carboxymethylcellulose (Sigma, C9481) dissolved in distilled water. Fulvestrant (kindly provided by Astrazeneca, 200 mg/kg/week) was administered by subcutaneous injection (0.1 ml/dose) on a weekly basis for fourteen days. The HBC×22 and HBC×34 tamoxifen-resistant PDXs have been established by our collaborators in the Curie Institute (Cottu el al, 2014) and were treated for fourteen days in the presence or absence of the gamma-secretase inhibitor RO4929097 (10 mg/kg/day, oral gavage). […]\nSingle cell suspensions of freshly isolated ER+ primary and metastatic patient-derived samples were cultured for 7-9 days (primary cells) in mammosphere colony assays in the presence of ethanol, 10^−6 M 4-hydroxy-tamoxifen or 10^−7 M fulvestrant. […] Mammosphere formation efficiency (MFE) was calculated by dividing the number of mammospheres formed (≧50 μm) by the original number of single cells seeded (500 cells/cm^2 for primary cells and 200 cells/cm^2 for cell lines) and is expressed as fold change normalised to control or as the mean percentage of MFE (Shaw et al., 2012).\nDissociated single cells were suspended in Aldefluor assay buffer containing an ALDH substrate, bodipyaminoacetaldehyde (BAAA) at […], and incubated for 45 min at 37° C. […] Data were acquired on a LSR II (BD) flow cytometer and analysed using the BD FACSDiva™ software."}, "[2]": {"system": "MCF-7, T47D and ZR-75-1 cells", "test": "BCSC activity (MFE, ALDH-positive cells) of pre-treated ER+ cell lines", "type": "cell-based, human", "conditions": "for ALDH-positive cells / mammosphere-forming activity: 6 days in vitro pre-treatment, 10^−6 M tamoxifen, 10^−7 M fulvestrant", "procedure": "Single cell suspensions of freshly isolated ER+ primary and metastatic patient-derived samples were cultured for 7-9 days (primary cells) in mammosphere colony assays in the presence of ethanol, 10^−6 M 4-hydroxy-tamoxifen or 10^−7 M fulvestrant. Primary mammospheres were dissociated and replated in secondary mammosphere suspension culture for a further 7-9 days to measure self-renewal. Patient-derived xenograft cells were cultured for 7-10 days. For cell lines, cells were pre-treated in adherence and then cultured for 5 days in mammosphere culture. Mammosphere formation efficiency (MFE) was calculated by dividing the number of mammospheres formed (≧50 μm) by the original number of single cells seeded (500 cells/cm^2 for primary cells and 200 cells/cm^2 for cell lines) and is expressed as fold change normalised to control or as the mean percentage of MFE (Shaw et al., 2012).\nDissociated single cells were suspended in Aldefluor assay buffer containing an ALDH substrate, bodipyaminoacetaldehyde (BAAA) at […], and incubated for 45 min at 37° C. To distinguish between ALDH-positive and -negative cells, a fraction of cells was incubated under identical conditions in the presence of a 2-fold molar excess of the ALDH inhibitor, diethylaminobenzaldehyde (DEAB). Mouse cells were excluded from the FACS analysis with anti-mouse MHC Class I (H-2Kd) antibody conjugated with Pacific Blue (BioLegend, 116616). 7-aminoactinomycin D (7AAD, BD) was added for dead cell exclusion. Data were acquired on a LSR II (BD) flow cytometer and analysed using the BD FACSDiva™ software.\nMCF7, T47D and ZR-75-1 cell lines were purchased from American Tissue Culture Collection (ATCC) and cultured in DMEM/F-12, GlutaMAX (Gibco) with 10% FBS (Gibco). Cells were treated for 3 days or 6 days with ethanol (control), 10^-6M 4-OH-tamoxifen or 10^−7M fulvestrant and/or with 10 μM of gamma-secretase inhibitor RO4929097 (Cellagen Technology) or DMSO (control)."}, "[3]": {"system": "metastatic (BB3RC31) PDX cells", "test": "Secondary tumor formation of cells from PDX tumors treated in vivo", "parameters": "species or system mice", "conditions": "90 days post-implantation; for tumor-initiating capacity in secondary mouse hosts: cells from PDX tumors treated in vivo", "procedure": "Tamoxifen citrate (Sigma, T9262, 10 mg/kg/day) and RO4929097 (Cellagen Technology, 3 mg/kg/day) were administered by oral gavage (0.1 ml/dose) on a five day from seven basis (weekends excluded) for fourteen days. Tamoxifen citrate and RO4929097 were prepared in 1% carboxymethylcellulose (Sigma, C9481) dissolved in distilled water. Fulvestrant (kindly provided by Astrazeneca, 200 mg/kg/week) was administered by subcutaneous injection (0.1 ml/dose) on a weekly basis for fourteen days. The HBC×22 and HBC×34 tamoxifen-resistant PDXs have been established by our collaborators in the Curie Institute (Cottu el al, 2014) and were treated for fourteen days in the presence or absence of the gamma-secretase inhibitor RO4929097 (10 mg/kg/day, oral gavage). Xenografts were collected in ice cold DMEM media for live cell assays, histological analysis and RNA and protein extraction. Patient-derived xenograft single cell suspension was obtained using a collagenase-hyaluronidase mixture for digestion (Stem Cell Technologies).\nTo determine tumor initiation capacity of MCF-7 cells or metastatic (BB3RC31) PDX cells treated in vitro or in vivo, respectively, Nude or NSG mice were injected subcutaneously with cells in mammosphere media mixed 1:1 with Matrigel. 8 μg/ml of 17-beta estradiol was administered in drinking water or 90-day slow release estrogen pellets were implanted sub-cutaneously into mice two days before cell injection (0.72 mg, Innovative Research of America). Serial limiting dilution implantation of MCF-7 cells (10.000, 1.000, 100, 10 cells) and the Extreme Limiting Dilution Analysis (ELDA) software (The Walter and Eliza Hall Institute of Medical Research) were used to perform calculations (95% CI) of tumor initiation. Positive tumor growth was assessed at day 60 or 90 after cell injection by determining the mice bearing a tumor greater than 100 mm^3 and is represented as mice positive for growth/mice tested (n=4 per condition in all experiments). p values were calculated with Chi-squared test."}}, "note": "Entries after “also recorded” stand apart in the source; their conditions may differ."}
{"smiles": "CC(C)(C(=O)NCC(F)(F)C(F)(F)F)C(=O)N[C@@H]1C(=O)Nc2ccccc2-c2ccccc21", "note": "[RO4929097]", "values": [{"measurement": "endocrine stimulated BCSC activity (MFE and Aldefluor activity)", "setting": "[1]; RO4929097 3 mg/kg/day oral with tamoxifen or fulvestrant", "value": "significantly inhibited"}, {"measurement": "BCSC activity as assayed by MFE and ALDH-positive cells", "setting": "[2]; 3 days tamoxifen or fulvestrant concomitantly with RO4929097 10 μM", "value": "reduced"}, {"measurement": "tumor-initiating capacity in secondary mouse hosts", "setting": "[3]", "value": "significantly reduced"}, {"measurement": "stimulation of tumorigenicity following in vivo tamoxifen and fulvestrant treatment", "setting": "[3]; combination with RO4929097", "value": "completely reversed"}]}
{"smiles": "C[C@]12CC[C@@H]3c4ccc(O)cc4C[C@@H](CCCCCCCCC[S+]([O-])CCCC(F)(F)C(F)(F)F)[C@H]3[C@@H]1CC[C@@H]2O", "note": "(stereo partly drawn) [fulvestrant]", "values": [{"measurement": "BCSC activity measured by MFE and ALDH enzymatic activity", "setting": "[1]", "value": "paradoxical increase; also recorded: increasing"}, {"measurement": "ALDH-positive cells", "setting": "[2]", "value": "enriched"}, {"measurement": "mammosphere-forming activity", "setting": "[2]", "value": "enriched"}, {"measurement": "tumor-initiating capacity in secondary mouse hosts", "setting": "[3]", "value": "stimulation of tumorigenicity"}]}
{"smiles": "CC/C(=C(\\c1ccccc1)c1ccc(OCCN(C)C)cc1)c1ccccc1", "note": "[tamoxifen, (Z)-2-[4-(1,2-diphenylbut-1-enyl)phenoxy]-N,N-dimethylethanamine]", "values": [{"measurement": "BCSC activity measured by MFE and ALDH enzymatic activity", "setting": "[1]", "value": "paradoxical increase; also recorded: increasing"}, {"measurement": "ALDH-positive cells", "setting": "[2]", "value": "enriched"}, {"measurement": "mammosphere-forming activity", "setting": "[2]", "value": "enriched"}, {"measurement": "tumor-initiating capacity in secondary mouse hosts", "setting": "[3]", "value": "stimulation of tumorigenicity"}]}
